# Source: patent publication US10538487B2, “Sulfonylureas and related compounds and use of same” (priority 2015, dated 2020)
# Target: NLRP3 inflammasome (Homo sapiens, UniProt Q96P20)
# Assay: Inhibition of IL-1β release, NLRP3 inflammasome activation assay in HMDM
# Assay type: cell-based
# Conditions: commercial compounds (Table 9), read-out: HMDM IC50 vs NLRP3
# Procedure: The following assays can be used to determine inhibitory activity of test compounds on the NLRP3 inflammasome using common stimuli such as adenosine triphosphate, nigericin, LeuLeu-OMe or monosodium urate crystals (MSU).
# To generate HMDM, human monocytes are isolated from buffy coat blood using Ficoll-Plaque Plus (GE Healthcare) and density centrifugation. CD14^+ cell selection is performed using MACS magnetic beads (Miltenyl Biotec).
# HMDM are seeded at 1×10^5/ml. […] Medium is removed and replaced with serum free medium (SFM) containing test compound 30 min prior to NLRP3 stimulation. […] ATP can be sourced from Sigma Aldrich, nigericin and MSU from Invivogen and LeuLeu-Ome from Chem-Impex International.
# For ELISA and cell death assays cells are seeded in 96 well plates. Supernatants are removed and analysed using ELISA kits according to the manufacturer's instructions (DuoSet® R&D Systems, ReadySetGo!® eBioscience, BD OptEIA™, or Perkin Elmer AlphaLISA®). Cell death is assessed by measurement of LDH release relative to a 100% cell lysis control using the CytoTox96® non-radioactive cytotoxicity assay (Promega).
# Chain of NLRP3 inflammasome (Q96P20 whole entry): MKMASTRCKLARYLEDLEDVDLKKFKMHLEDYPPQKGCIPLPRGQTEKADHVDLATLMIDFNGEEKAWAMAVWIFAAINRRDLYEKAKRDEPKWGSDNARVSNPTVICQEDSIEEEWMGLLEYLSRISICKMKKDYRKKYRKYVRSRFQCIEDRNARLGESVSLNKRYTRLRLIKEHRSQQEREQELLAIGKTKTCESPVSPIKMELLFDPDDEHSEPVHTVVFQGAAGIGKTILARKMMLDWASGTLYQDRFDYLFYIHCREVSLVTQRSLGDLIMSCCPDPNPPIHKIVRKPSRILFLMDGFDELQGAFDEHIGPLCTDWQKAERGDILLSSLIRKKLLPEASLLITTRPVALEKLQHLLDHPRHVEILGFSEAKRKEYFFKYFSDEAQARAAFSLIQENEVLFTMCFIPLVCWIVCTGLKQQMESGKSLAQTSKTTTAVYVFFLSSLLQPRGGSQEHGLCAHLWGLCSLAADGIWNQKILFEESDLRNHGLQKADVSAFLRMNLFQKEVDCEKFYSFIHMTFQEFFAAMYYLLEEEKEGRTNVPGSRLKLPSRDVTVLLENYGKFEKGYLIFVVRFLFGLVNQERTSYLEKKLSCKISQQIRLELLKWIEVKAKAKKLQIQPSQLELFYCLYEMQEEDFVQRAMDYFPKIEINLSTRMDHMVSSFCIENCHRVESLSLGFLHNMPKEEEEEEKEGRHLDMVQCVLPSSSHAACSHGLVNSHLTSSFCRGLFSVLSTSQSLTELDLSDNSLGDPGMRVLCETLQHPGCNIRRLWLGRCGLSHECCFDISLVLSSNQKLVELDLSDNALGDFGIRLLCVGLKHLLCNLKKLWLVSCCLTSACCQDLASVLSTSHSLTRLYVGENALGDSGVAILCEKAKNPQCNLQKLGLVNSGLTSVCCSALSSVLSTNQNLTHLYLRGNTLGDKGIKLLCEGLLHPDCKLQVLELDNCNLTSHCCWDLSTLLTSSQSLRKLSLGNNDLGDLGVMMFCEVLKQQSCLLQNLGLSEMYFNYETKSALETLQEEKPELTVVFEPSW
row,SMILES,IC50
1,"CCCCNC(=O)NS(=O)(=O)c1ccc(N)cc1 [Carbutamide, reference compound]",> 200000 nM
2,"CCC1=C(C)CN(C(=O)NCCc2ccc(S(=O)(=O)NC(=O)NC3CCC(C)CC3)cc2)C1=O (stereo not drawn) [Glimepiride, reference compound]",92000 nM
3,"CCC1=C(C)CN(C(=O)NCCc2ccc(S(N)(=O)=O)cc2)C1=O [Glimespiride precursor, reference compound]",> 200000 nM
4,"Cc1cnc(C(=O)NCCc2ccc(S(N)(=O)=O)cc2)cn1 [Glipizide precursor, reference compound]",> 50000 nM
5,"COc1ccc2c(c1)C(=O)N(CCc1ccc(S(=O)(=O)NC(=O)NC3CCCCC3)cc1)C(=O)C2(C)C [Gliquidone, N-(cyclohexylcarbamoyl)-4-(2-(7-methoxy-4,4-dimethyl-1,3-dioxo-3,4-dihydroisoquinolin-2(1H)-yl)ethyl)benzenesulfonamide, reference compound]",32000 nM

# Same assay, conditions: inhibition of IL-1β release, class symbols, read-out: Avg. IL-1β IC50 HMDM
row,SMILES,IC50
1,"O=C(Nc1c2c(cc3c1CCC3)CCC2)NS(=O)(=O)c1ccn(Cc2ccccc2)n1 [1-benzyl-N-((1,2,3,5,6,7-hexahydro-s-indacen-4-yl)carbamoyl)-1H-pyrazole-3-sulfonamide]",< 10000 nM
2,"O=C(Nc1c2c(cc3c1CCC3)CCC2)NS(=O)(=O)c1ccn(C2CCCCC2)n1 [1-cyclohexyl-N-((1,2,3,5,6,7-hexahydro-s-indacen-4-yl)carbamoyl)-1H-pyrazole-3-sulfonamide]",< 1000 nM
3,"O=C(Nc1c2c(cc3c1CCC3)CCC2)NS(=O)(=O)c1ccn(C2CC2)n1 [1-cyclopropyl-N-((1,2,3,5,6,7-hexahydro-s-indacen-4-yl)carbamoyl)-1H-pyrazole-3-sulfonamide]",< 100 nM
4,"CN(C)c1ccc2c(CC(=O)NCCc3ccc(S(=O)(=O)NC(=O)Nc4c5c(cc6c4CCC6)CCC5)cc3)cc(=O)oc2c1 [2-(7-(Dimethylamino)-2-oxo-2H-chromen-4-yl)-N-(4-(N-(1,2,3,5,6,7-hexahydro-s-indacen-4-ylcarbamoyl)sulfamoyl)phenethyl)acetamide]",< 1000 nM
5,"NCCCn1cc(CCC(=O)Nc2cccc(S(=O)(=O)NC(=O)Nc3c4c(cc5c3CCC5)CCC4)c2)nn1 [3-(1-(3-aminopropyl)-1H-1,2,3-triazol-4-yl)-N-(3-(N-((1,2,3,5,6,7-hexahydro-s-indacen-4-yl)carbamoyl)sulfamoyl)phenyl)propanamide]",< 1000 nM
6,"C#CCNC(=O)CCc1ccc(S(=O)(=O)NC(=O)Nc2c3c(cc4c2CCC4)CCC3)cc1 [3-(4-(N-((1,2,3,5,6,7-hexahydro-s-indacen-4-yl)carbamoyl)sulfamoyl)phenyl)-N-(prop-2-yn-1-yl)propanamide]",< 100 nM
7,"NC(=O)c1cccc(S(=O)(=O)NC(=O)Nc2c3c(cc4c2CCC4)CCC3)c1 [3-(N-(1,2,3,5,6,7-Hexahydro-s-indacen-4-ylcarbamoyl)sulfamoyl)benzamide]",< 1000 nM
8,"O=C(Nc1c2c(cc3c1CCC3)CCC2)NS(=O)(=O)c1cccc(C(=O)O)c1 [3-(N-((1,2,3,5,6,7-hexahydro-s-indacen-4-yl)carbamoyl)sulfamoyl)benzoic acid]",< 100 nM
9,"O=C(Nc1c2c(cc3c1CCC3)CCC2)NS(=O)(=O)c1cccc(OC(F)F)c1 [3-(difluoromethoxy)-N-((1,2,3,5,6,7-hexahydro-s-indacen-4-yl)carbamoyl)benzenesulfonamide]",< 1000 nM
10,"[N-]=[N+]=Nc1cccc(S(=O)(=O)NC(=O)Nc2c3c(cc4c2CCC4)CCC3)c1 [3-Azido-N-((1,2,3,5,6,7-hexahydro-s-indacen-4-yl)carbamoyl)benzenesulfonamide]",< 1000 nM
11,COc1cc(NC(=O)NS(=O)(=O)c2cc(C(C)(C)O)co2)c2ncccc2c1 [4-(2-hydroxypropan-2-yl)-N-((6-methoxyquinolin-8-yl)carbamoyl)furan-2-sulfonamide],< 10000 nM
12,CC(C)(O)c1coc(S(=O)(=O)NC(=O)Nc2cccc3cccnc23)c1 [4-(2-hydroxypropan-2-yl)-N-(quinolin-8-ylcarbamoyl)furan-2-sulfonamide],< 10000 nM
13,"[2H]C([2H])([2H])C(O)(c1cc(S(=O)(=O)NC(=O)Nc2c3c(cc4c2CCO4)CCC3)oc1C)C([2H])([2H])[2H] [4-(2-hydroxypropan-2-yl-1,1,1,3,3,3-d6)-5-methyl-N-((3,5,6,7-tetrahydro-2H-indeno[5,6-b]furan-4-yl)carbamoyl)furan-2-sulfonamide]",< 100 nM
14,"O=C(Nc1c2c(cc3c1CCC3)CCC2)NS(=O)(=O)c1ccc(Cl)cc1 [4-chloro-N-((1,2,3,5,6,7-hexahydro-s-indacen-4-yl)carbamoyl)benzenesulfonamide]",< 1000 nM
15,"CN(C)Cc1ccc(S(=O)(=O)NC(=O)Nc2c3c(cc4c2CCC4)CCC3)o1 [5-((dimethylamino)methyl)-N-((1,2,3,5,6,7-hexahydro-s-indacen-4-yl)carbamoyl)furan-2-sulfonamide]",< 100 nM
16,"CN(C)c1cccc2c(S(=O)(=O)NC(=O)Nc3c4c(cc5c3CCC5)CCC4)cccc12 [5-(dimethylamino)-N-((1,2,3,5,6,7-hexahydro-s-indacen-4-yl)carbamoyl)naphthalene-1-sulfonamide]",< 1000 nM
17,"CCc1ccc(S(=O)(=O)NC(=O)Nc2c3c(cc4c2CCC4)CCC3)o1 [5-ethyl-N-((1,2,3,5,6,7-hexahydro-s-indacen-4-yl)carbamoyl)furan-2-sulfonamide]",< 1000 nM
18,"CN(C)S(=O)(=O)c1cccc(S(=O)(=O)NC(=O)Nc2c3c(cc4c2CCC4)CCC3)c1 [N1-((1,2,3,5,6,7-hexahydro-s-indacen-4-yl)carbamoyl)-N3,N3-dimethylbenzene-1,3-disulfonamide]",< 100 nM
19,"CC(C)(O)c1ccnc(S(=O)(=O)NC(=O)Nc2c3c(cc4c2CCC4)CCC3)c1 [N-(1,2,3,5,6,7-hexahydro-s-indacen-4-ylcarbamoyl)-4-(2-hydroxypropan-2-yl)pyridine-2-sulfonamide]",< 100 nM
20,"O=C(CCc1cn(CCCNc2ccc([N+](=O)[O-])c3nonc23)nn1)Nc1cccc(S(=O)(=O)NC(=O)Nc2c3c(cc4c2CCC4)CCC3)c1 [N-(3-(N-((1,2,3,5,6,7-hexahydro-s-indacen-4-yl)carbamoyl)sulfamoyl)phenyl)-3-(1-(3-((7-nitrobenzo[c][1,2,5]oxadiazol-4-yl)amino)propyl)-1H-1,2,3-triazol-4-yl)propanamide]",< 10000 nM
21,"C#CCCC(=O)Nc1cccc(S(=O)(=O)NC(=O)Nc2c3c(cc4c2CCC4)CCC3)c1 [N-(3-(N-((1,2,3,5,6,7-hexahydro-s-indacen-4-yl)carbamoyl)sulfamoyl)phenyl)pent-4-ynamide]",< 1000 nM
22,"CN(CC(=O)NCCc1ccc(S(=O)(=O)NC(=O)Nc2c3c(cc4c2CCC4)CCC3)cc1)c1ccc([N+](=O)[O-])c2nonc12 [N-(4-(N-(1,2,3,5,6,7-Hexahydros-indacen-4-ylcarbamoyl)sulfamoyl)phenethyl)-2-(methyl(7-nitrobenzo[c][1,2,5]oxadiazol-4-yl)amino)acetamide]",< 10000 nM
23,"Cc1cnc(C(=O)NCCc2ccc(S(=O)(=O)NC(=O)Nc3c4c(cc5c3CCC5)CCC4)cc2)cn1 [N-(4-(N-((1,2,3,5,6,7-hexahydro-s-indacen-4-yl)carbamoyl)sulfamoyl)phenethyl)-5-methylpyrazine-2-carboxamide]",< 1000 nM
24,"CC(C)(O)c1coc(S(=O)(=O)NC(=S)Nc2c3c(cc4c2CCC4)CCC3)c1 [N-((1,2,3,5,6,7-hexahydro-s-indacen-4-yl)carbamothioyl)-4-(2-hydroxypropan-2-yl)furan-2-sulfonamide]",< 1000 nM
25,"Cc1cc(S(=O)(=O)NC(=O)Nc2c3c(cc4c2CCC4)CCC3)nn1C [N-((1,2,3,5,6,7-hexahydro-s-indacen-4-yl)carbamoyl)-1,5-dimethyl-1H-pyrazole-3-sulfonamide]",< 1000 nM
26,"CC(c1ccccc1)n1ccc(S(=O)(=O)NC(=O)Nc2c3c(cc4c2CCC4)CCC3)n1 (stereo not drawn) [N-((1,2,3,5,6,7-hexahydro-s-indacen-4-yl)carbamoyl)-1-(1-phenylethyl)-1H-pyrazole-3-sulfonamide]",< 1000 nM
27,"O=C(Nc1c2c(cc3c1CCC3)CCC2)NS(=O)(=O)c1ccn(CCN2CCCCC2)n1 [N-((1,2,3,5,6,7-hexahydro-s-indacen-4-yl)carbamoyl)-1-(2-(piperidin-1-yl)ethyl)-1H-pyrazole-3-sulfonamide]",< 10000 nM
28,"O=C(Nc1c2c(cc3c1CCC3)CCC2)NS(=O)(=O)c1ccn(C(F)(F)F)n1 [N-((1,2,3,5,6,7-hexahydro-s-indacen-4-yl)carbamoyl)-1-(trifluoromethyl)-1H-pyrazole-3-sulfonamide]",< 100 nM

# Test system: not listed separately
# Assay: Single dose pharmacokinetic study in mice (iv 4 mg/Kg, po 20 mg/Kg), plasma concentration post-dosing
# Assay type: in vivo, mouse
# Conditions: mice, iv dose of 4 mg/Kg and po dose of 20 mg/Kg
# Procedure: This is advantageous leading to comparatively lower doses or less frequent administration. The procedure followed was: Male C57BL/6 mice were used at 7-9 weeks age with 3 animals per group. Mice were dosed with test compound using single intravenous bolus or oral gavage. Blood samples were taken via submandibular or saphenous vein for analysis of plasma concentrations of compound by LC-MS/MS at the following timepoints: IV (3 mice): 0.083, 0.25, 0.5, 1, 2, 4, 8 and 24 hours post dosing, PO (3 mice): 0.25, 0.5, 1, 2, 4, 8 and 24 hours post dosing. LC-MS/MS method for the quantitative determination of test compound in corresponding biological matrix was developed. […] The results are shown graphically in FIGS. 1A to 1C (MCC950) and FIGS. 2A to 2C (MCC7840).
SMILES,area under the curve (AUC) in comparison to MCC950,half-life in comparison to MCC950,maximum concentration (Cmax) in comparison to MCC950
"CC(C)n1ccc(S(=O)(=O)NC(=O)Nc2c3c(cc4c2CCC4)CCC3)n1 [MCC7840, N-((1,2,3,5,6,7-hexahydro-s-indacen-4-yl)carbamoyl)-1-isopropyl-1H-pyrazole-3-sulfonamide]",increased,extended half-life,increased maximum concentration (Cmax)
